Assay results as given in article PMC11845477, “Exploring the principles behind antibiotics with limited resistance” (Nature Communications, 2025).

Key:
E. coli BW25113-ΔacrB = test: AcrAB-TolC efflux deficiency screen, relative MIC; type: cell-based, Escherichia coli; details: ΔacrB vs wild-type
Outline: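 Broth microdilution in MHB (supplemented MS for SCH79797), ten-step antibiotic dilutions, 5 × 10^5 cells/mL, 18 h at 37 °C with shaking; MIC is lowest concentration giving background-corrected OD600 < 0.05. Relative MIC as log2 ratio: ΔacrB vs wild-type; pUCacrAB vs empty pUC118 (plasmid strains under 100 µg/mL ampicillin). Mean of 3 biological replicates.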

[1] = tested on: K. pneumoniae ATCC 10031 (SEN) and K. pneumoniae ATCC 700603 (MDR); test: Adaptive laboratory evolution (ALE), relative MIC of evolved lines; type: cell-based, Klebsiella pneumoniae
Outline: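 Ten parallel populations per antibiotic–ancestor pair were evolved in MHB at 37 °C, starting near 50% growth-inhibiting drug. Every 72 h they were passaged into 0.5–2.5× increasing concentrations, keeping the highest-drug well with OD600 > 0.2.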

[2] = KP-SEN (Klebsiella pneumoniae ATCC 10031), evolved line 2
[3] = KP-SEN (Klebsiella pneumoniae ATCC 10031), evolved line 6
[4] = KP-SEN (Klebsiella pneumoniae ATCC 10031), evolved line 8
[5] = KP-SEN (Klebsiella pneumoniae ATCC 10031), evolved line 10
[6] = Klebsiella pneumoniae ATCC 10031 (KP-SEN), evolved line 1
[7] = Klebsiella pneumoniae ATCC 10031 (KP-SEN), evolved line 2
[8] = Klebsiella pneumoniae ATCC 10031 (KP-SEN), evolved line 3
[9] = Klebsiella pneumoniae ATCC 10031 (KP-SEN), evolved line 4
[10] = Klebsiella pneumoniae ATCC 10031 (KP-SEN), evolved line 5
[11] = Klebsiella pneumoniae ATCC 10031 (KP-SEN), evolved line 6
[12] = Klebsiella pneumoniae ATCC 10031 (KP-SEN), evolved line 8
[13] = Klebsiella pneumoniae ATCC 10031 (KP-SEN), evolved line 10

C[C@@H](O)[C@H]1C(=O)N2C(C(=O)O)=C(S[C@H]3CC[S@@+]([O-])C3)S[C@H]12 [Sulopenem]
0.5 µg/mL: MIC of evolved line ([1]; KP-SEN (K. pneumoniae ATCC 10031), evolved line 4 of the given antibiotic) | MIC of evolved line ([1]; KP-SEN (K. pneumoniae ATCC 10031), evolved line 5 of the given antibiotic) | MIC of evolved line ([1]; KP-SEN (K. pneumoniae ATCC 10031), evolved line 9 of the given antibiotic)
0.585: Relative MIC (log2) (E. coli BW25113-ΔacrB; replicate 1) | Relative MIC (log2) (E. coli BW25113-ΔacrB; replicate 2) | Relative MIC (log2) (E. coli BW25113-ΔacrB; replicate 3)
1 µg/mL: MIC of evolved line ([1]; KP-SEN (K. pneumoniae ATCC 10031), evolved line 1 of the given antibiotic) | MIC of evolved line ([1]; KP-SEN (K. pneumoniae ATCC 10031), evolved line 2 of the given antibiotic) | MIC of evolved line ([1]; KP-SEN (K. pneumoniae ATCC 10031), evolved line 6 of the given antibiotic) | MIC of evolved line ([1]; KP-SEN (K. pneumoniae ATCC 10031), evolved line 8 of the given antibiotic) | MIC of evolved line ([1]; KP-SEN (K. pneumoniae ATCC 10031), evolved line 10 of the given antibiotic)
1.505 log10: Relative MIC (log10) ([1]; KP-SEN (Klebsiella pneumoniae ATCC 10031), evolved line 1) | Relative MIC (log10) [1, 2] | Relative MIC (log10) [1, 3] | Relative MIC (log10) [1, 4] | Relative MIC (log10) [1, 5]
2.408 log10: Relative MIC (log10) ([1]; KP-MDR (Klebsiella pneumoniae ATCC 700603), evolved line 1) | Relative MIC (log10) ([1]; KP-MDR (Klebsiella pneumoniae ATCC 700603), evolved line 3) | Relative MIC (log10) ([1]; KP-MDR (Klebsiella pneumoniae ATCC 700603), evolved line 4) | Relative MIC (log10) ([1]; KP-MDR (Klebsiella pneumoniae ATCC 700603), evolved line 8) | Relative MIC (log10) ([1]; KP-MDR (Klebsiella pneumoniae ATCC 700603), evolved line 9)
128 µg/mL: MIC of evolved line ([1]; KP-MDR (K. pneumoniae ATCC 700603), evolved line 1 of the given antibiotic) | MIC of evolved line ([1]; KP-MDR (K. pneumoniae ATCC 700603), evolved line 3 of the given antibiotic) | MIC of evolved line ([1]; KP-MDR (K. pneumoniae ATCC 700603), evolved line 4 of the given antibiotic) | MIC of evolved line ([1]; KP-MDR (K. pneumoniae ATCC 700603), evolved line 5 of the given antibiotic) | MIC of evolved line ([1]; KP-MDR (K. pneumoniae ATCC 700603), evolved line 8 of the given antibiotic) | MIC of evolved line ([1]; KP-MDR (K. pneumoniae ATCC 700603), evolved line 9 of the given antibiotic) | MIC of evolved line ([1]; KP-MDR (K. pneumoniae ATCC 700603), evolved line 10 of the given antibiotic)
256: Relative MIC ([1]; KP-MDR (K. pneumoniae ATCC 700603), evolved line 1 vs ancestor) | Relative MIC ([1]; KP-MDR (K. pneumoniae ATCC 700603), evolved line 3 vs ancestor) | Relative MIC ([1]; KP-MDR (K. pneumoniae ATCC 700603), evolved line 4 vs ancestor) | Relative MIC ([1]; KP-MDR (K. pneumoniae ATCC 700603), evolved line 5 vs ancestor) | Relative MIC ([1]; KP-MDR (K. pneumoniae ATCC 700603), evolved line 8 vs ancestor) | Relative MIC ([1]; KP-MDR (K. pneumoniae ATCC 700603), evolved line 9 vs ancestor) | Relative MIC ([1]; KP-MDR (K. pneumoniae ATCC 700603), evolved line 10 vs ancestor) | Relative MIC ([1]; Klebsiella pneumoniae ATCC 700603 (KP-MDR), evolved line 1) | Relative MIC ([1]; Klebsiella pneumoniae ATCC 700603 (KP-MDR), evolved line 3) | Relative MIC ([1]; Klebsiella pneumoniae ATCC 700603 (KP-MDR), evolved line 4) | Relative MIC ([1]; Klebsiella pneumoniae ATCC 700603 (KP-MDR), evolved line 5) | Relative MIC ([1]; Klebsiella pneumoniae ATCC 700603 (KP-MDR), evolved line 8) | Relative MIC ([1]; Klebsiella pneumoniae ATCC 700603 (KP-MDR), evolved line 9) | Relative MIC ([1]; Klebsiella pneumoniae ATCC 700603 (KP-MDR), evolved line 10)
32: Relative MIC ([1]; KP-SEN (K. pneumoniae ATCC 10031), evolved line 1 vs ancestor) | Relative MIC ([1]; KP-SEN (K. pneumoniae ATCC 10031), evolved line 2 vs ancestor) | Relative MIC ([1]; KP-SEN (K. pneumoniae ATCC 10031), evolved line 6 vs ancestor) | Relative MIC ([1]; KP-SEN (K. pneumoniae ATCC 10031), evolved line 8 vs ancestor) | Relative MIC ([1]; KP-SEN (K. pneumoniae ATCC 10031), evolved line 10 vs ancestor) | Relative MIC [1, 6] | Relative MIC [1, 7] | Relative MIC [1, 11] | Relative MIC [1, 12] | Relative MIC [1, 13]
8: Relative MIC ([1]; KP-SEN (K. pneumoniae ATCC 10031), evolved line 3 vs ancestor) | Relative MIC [1, 8]
0.25 µg/mL: MIC of evolved line ([1]; KP-SEN (K. pneumoniae ATCC 10031), evolved line 3 of the given antibiotic)
16: Relative MIC ([1]; KP-SEN (K. pneumoniae ATCC 10031), evolved line 4 vs ancestor) | Relative MIC ([1]; KP-SEN (K. pneumoniae ATCC 10031), evolved line 5 vs ancestor) | Relative MIC ([1]; KP-SEN (K. pneumoniae ATCC 10031), evolved line 9 vs ancestor) | Relative MIC [1, 9] | Relative MIC [1, 10] | Relative MIC ([1]; Klebsiella pneumoniae ATCC 10031 (KP-SEN), evolved line 9)

C[C@@H]1CN2c3c(cc4c(N5C(=O)OC[C@@H]5C)noc4c3F)CC3(C(=O)NC(=O)NC3=O)[C@H]2[C@H](C)O1 [Zoliflodacin]
512: Relative MIC ([1]; KP-SEN (ATCC 10031), evolved line 3, evolved vs ancestor) | Relative MIC [1, 8]
3.0103 log10: Relative MIC (log10) [1, 2] | Relative MIC (log10) ([1]; KP-SEN (Klebsiella pneumoniae ATCC 10031), evolved line 4) | Relative MIC (log10) [1, 3] | Relative MIC (log10) [1, 4] | Relative MIC (log10) [1, 5]
-4: Relative MIC (log2) (E. coli BW25113-ΔacrB; replicate 1) | Relative MIC (log2) (E. coli BW25113-ΔacrB; replicate 2) | Relative MIC (log2) (E. coli BW25113-ΔacrB; replicate 3)
1024: Relative MIC ([1]; KP-SEN (ATCC 10031), evolved line 1, evolved vs ancestor) | Relative MIC ([1]; KP-SEN (ATCC 10031), evolved line 2, evolved vs ancestor) | Relative MIC ([1]; KP-SEN (ATCC 10031), evolved line 4, evolved vs ancestor) | Relative MIC ([1]; KP-SEN (ATCC 10031), evolved line 5, evolved vs ancestor) | Relative MIC ([1]; KP-SEN (ATCC 10031), evolved line 6, evolved vs ancestor) | Relative MIC ([1]; KP-SEN (ATCC 10031), evolved line 7, evolved vs ancestor) | Relative MIC ([1]; KP-SEN (ATCC 10031), evolved line 8, evolved vs ancestor) | Relative MIC ([1]; KP-SEN (ATCC 10031), evolved line 10, evolved vs ancestor) | Relative MIC [1, 6] | Relative MIC [1, 7] | Relative MIC [1, 9] | Relative MIC [1, 10] | Relative MIC [1, 11] | Relative MIC ([1]; Klebsiella pneumoniae ATCC 10031 (KP-SEN), evolved line 7) | Relative MIC [1, 12] | Relative MIC [1, 13]
